These results are taken from ChEMBL document CHEMBL3414527, “Engineering potent and selective analogues of GpTx-1, a tarantula venom peptide antagonist of the Na(V)1.7 sodium channel” (J Med Chem, 2015).

The target in test [1] is Sodium channel protein type 5 subunit alpha (Homo sapiens, UniProt Q14524). Briefly: Inhibition of human NaV1.5 at -140 mV holding potential by whole-cell patch clamp assay.
For test [2], the target named is Sodium channel protein type 9 subunit alpha (Homo sapiens, UniProt Q15858). Briefly: Inhibition of human NaV1.7 at -140 mV holding potential by whole-cell patch clamp assay.
Chain of Sodium channel protein type 9 subunit alpha (Q15858 whole entry): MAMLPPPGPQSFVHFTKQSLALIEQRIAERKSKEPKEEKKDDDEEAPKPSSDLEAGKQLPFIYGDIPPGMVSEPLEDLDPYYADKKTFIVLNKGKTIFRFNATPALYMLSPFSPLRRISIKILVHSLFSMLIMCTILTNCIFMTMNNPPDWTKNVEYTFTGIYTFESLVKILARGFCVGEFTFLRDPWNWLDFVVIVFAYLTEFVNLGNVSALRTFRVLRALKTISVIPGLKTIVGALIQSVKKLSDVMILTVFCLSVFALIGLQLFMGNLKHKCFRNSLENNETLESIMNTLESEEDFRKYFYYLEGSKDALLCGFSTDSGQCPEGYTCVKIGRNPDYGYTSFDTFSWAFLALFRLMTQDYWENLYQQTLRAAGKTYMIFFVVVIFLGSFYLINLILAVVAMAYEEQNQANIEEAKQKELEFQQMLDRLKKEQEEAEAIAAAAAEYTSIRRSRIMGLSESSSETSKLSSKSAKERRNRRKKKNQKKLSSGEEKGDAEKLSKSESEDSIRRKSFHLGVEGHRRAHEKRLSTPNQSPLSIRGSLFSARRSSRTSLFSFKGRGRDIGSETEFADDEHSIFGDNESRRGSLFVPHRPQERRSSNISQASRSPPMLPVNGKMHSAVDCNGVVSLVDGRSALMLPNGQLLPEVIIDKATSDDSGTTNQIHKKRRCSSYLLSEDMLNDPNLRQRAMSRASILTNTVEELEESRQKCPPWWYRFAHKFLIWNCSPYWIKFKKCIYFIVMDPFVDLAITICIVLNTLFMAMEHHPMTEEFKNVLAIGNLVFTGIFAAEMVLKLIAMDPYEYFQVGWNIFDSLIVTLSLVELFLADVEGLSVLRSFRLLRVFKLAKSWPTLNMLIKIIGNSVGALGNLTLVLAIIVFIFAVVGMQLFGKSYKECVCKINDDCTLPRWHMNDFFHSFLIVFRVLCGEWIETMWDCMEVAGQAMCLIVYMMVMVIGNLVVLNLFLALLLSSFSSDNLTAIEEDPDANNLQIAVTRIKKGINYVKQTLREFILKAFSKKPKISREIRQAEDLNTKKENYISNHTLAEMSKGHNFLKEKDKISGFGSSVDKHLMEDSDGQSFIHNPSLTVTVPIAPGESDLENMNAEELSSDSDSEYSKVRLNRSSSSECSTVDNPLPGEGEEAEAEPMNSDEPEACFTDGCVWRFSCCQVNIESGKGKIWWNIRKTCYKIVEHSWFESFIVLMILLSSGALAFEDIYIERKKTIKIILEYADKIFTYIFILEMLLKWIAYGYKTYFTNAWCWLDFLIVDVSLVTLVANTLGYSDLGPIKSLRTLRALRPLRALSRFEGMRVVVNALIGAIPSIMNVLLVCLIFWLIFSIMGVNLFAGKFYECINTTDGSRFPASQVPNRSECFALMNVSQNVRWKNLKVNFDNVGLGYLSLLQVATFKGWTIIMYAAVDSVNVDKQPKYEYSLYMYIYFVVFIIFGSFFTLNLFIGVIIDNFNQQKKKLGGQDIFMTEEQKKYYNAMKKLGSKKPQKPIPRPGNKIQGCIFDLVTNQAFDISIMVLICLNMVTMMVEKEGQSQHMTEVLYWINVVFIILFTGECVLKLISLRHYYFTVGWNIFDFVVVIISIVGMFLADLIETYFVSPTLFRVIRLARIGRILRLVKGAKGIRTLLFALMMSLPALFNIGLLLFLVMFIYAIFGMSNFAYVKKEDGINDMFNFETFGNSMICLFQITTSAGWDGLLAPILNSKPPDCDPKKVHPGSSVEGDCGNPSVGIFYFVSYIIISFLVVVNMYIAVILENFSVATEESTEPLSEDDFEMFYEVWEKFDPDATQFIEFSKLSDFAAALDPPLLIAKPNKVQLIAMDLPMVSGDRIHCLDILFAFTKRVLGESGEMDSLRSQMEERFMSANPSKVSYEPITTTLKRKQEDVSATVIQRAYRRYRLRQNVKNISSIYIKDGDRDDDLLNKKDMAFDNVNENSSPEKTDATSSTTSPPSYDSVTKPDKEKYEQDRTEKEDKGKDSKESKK

Bridge positions count the residues as written; N and C are the ends. Peptide text beside a SMILES is read from it.

Chain of Sodium channel protein type 5 subunit alpha (Q14524 whole entry): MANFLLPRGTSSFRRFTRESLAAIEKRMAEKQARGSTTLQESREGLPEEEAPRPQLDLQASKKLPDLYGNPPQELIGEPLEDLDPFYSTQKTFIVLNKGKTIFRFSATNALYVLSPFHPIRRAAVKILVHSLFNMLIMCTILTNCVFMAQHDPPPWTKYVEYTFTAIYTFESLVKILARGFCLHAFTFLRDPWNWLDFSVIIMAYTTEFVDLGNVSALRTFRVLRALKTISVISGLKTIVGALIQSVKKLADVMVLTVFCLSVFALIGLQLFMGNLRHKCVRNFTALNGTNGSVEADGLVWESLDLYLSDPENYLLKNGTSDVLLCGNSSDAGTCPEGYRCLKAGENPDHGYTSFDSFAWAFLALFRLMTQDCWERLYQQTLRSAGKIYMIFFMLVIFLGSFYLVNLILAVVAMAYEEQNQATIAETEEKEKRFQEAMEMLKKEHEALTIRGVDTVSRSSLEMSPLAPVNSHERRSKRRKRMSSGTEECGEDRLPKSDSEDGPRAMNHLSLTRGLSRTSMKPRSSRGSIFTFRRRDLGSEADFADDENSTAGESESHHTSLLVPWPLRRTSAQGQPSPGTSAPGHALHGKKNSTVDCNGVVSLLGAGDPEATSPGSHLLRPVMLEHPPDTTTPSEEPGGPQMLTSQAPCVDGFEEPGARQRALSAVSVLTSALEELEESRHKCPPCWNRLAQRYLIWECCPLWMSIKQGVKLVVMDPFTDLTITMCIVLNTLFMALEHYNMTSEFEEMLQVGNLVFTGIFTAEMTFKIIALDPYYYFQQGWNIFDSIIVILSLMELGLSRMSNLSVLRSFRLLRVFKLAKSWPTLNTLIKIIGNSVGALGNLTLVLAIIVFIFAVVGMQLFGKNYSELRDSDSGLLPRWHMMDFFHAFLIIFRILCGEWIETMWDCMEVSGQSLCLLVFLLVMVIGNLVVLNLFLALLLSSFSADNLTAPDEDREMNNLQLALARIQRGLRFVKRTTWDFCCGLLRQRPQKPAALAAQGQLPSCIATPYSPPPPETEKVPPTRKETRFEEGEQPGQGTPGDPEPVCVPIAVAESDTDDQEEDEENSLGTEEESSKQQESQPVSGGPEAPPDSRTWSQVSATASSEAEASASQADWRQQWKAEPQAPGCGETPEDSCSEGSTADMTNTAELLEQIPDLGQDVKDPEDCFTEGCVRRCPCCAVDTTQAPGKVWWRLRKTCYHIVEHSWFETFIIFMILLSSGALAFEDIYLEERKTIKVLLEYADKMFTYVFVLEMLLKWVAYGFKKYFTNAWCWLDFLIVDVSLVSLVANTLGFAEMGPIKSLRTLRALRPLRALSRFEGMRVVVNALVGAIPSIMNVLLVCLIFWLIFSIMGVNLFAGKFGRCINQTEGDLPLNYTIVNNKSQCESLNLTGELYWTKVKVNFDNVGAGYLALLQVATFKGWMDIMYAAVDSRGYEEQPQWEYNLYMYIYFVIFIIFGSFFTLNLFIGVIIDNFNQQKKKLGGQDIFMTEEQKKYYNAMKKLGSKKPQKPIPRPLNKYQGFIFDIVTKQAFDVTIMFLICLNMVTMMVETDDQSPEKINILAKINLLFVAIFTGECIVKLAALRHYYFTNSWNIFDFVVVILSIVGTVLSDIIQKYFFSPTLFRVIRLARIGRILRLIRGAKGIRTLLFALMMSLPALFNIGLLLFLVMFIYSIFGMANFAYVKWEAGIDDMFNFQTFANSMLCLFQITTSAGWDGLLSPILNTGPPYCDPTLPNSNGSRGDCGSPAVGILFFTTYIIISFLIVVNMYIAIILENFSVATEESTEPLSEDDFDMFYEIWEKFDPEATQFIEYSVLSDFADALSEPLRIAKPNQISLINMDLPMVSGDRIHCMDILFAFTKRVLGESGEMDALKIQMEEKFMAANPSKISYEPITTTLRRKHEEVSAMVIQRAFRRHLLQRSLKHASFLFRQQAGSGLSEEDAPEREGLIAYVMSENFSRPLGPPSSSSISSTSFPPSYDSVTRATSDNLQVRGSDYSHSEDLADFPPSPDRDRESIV

Turning to `CC[C@H](C)[C@@H]1NC(=O)[C@@H]2CSSC[C@@H]3NC(=O)[C@H](C(C)C)NC(=O)[C@H](CC(C)C)NC(=O)[C@H](CC(N)=O)NC(=O)[C@@H]4CCCN4C(=O)[C@H](CCCNC(=N)N)NC(=O)[C@H](CSSC[C@H](NC(=O)[C@@H](N)CC(=O)O)C(=O)N[C@@H](CC(C)C)C(=O)NCC(=O)N[C@@H](C)C(=O)N[C@@H](Cc4c[nH]c5ccccc45)C(=O)N[C@@H](CCCNC(=N)N)C(=O)N[C@@H](CCCCN)C(=O)N2)NC(=O)[C@H](CSSC[C@@H](C(=O)N[C@@H](CCCCN)C(=O)N[C@@H](Cc2ccc(O)cc2)C(=O)N[C@H](C(=O)N[C@@H](Cc2ccccc2)C(N)=O)C(C)C)NC(=O)[C@H](Cc2c[nH]c4ccccc24)NC(=O)[C@H](CCCCN)NC(=O)[C@H](Cc2cnc[nH]2)NC(=O)[C@H]([C@@H](C)O)NC(=O)[C@H](CCCNC(=N)N)NC(=O)[C@H](CO)NC3=O)NC(=O)[C@H](CCCCN)NC(=O)[C@H](CC(=O)O)NC(=O)[C@H](CC(N)=O)NC(=O)[C@H](CC(=O)O)NC(=O)[C@@H]2CCCN2C1=O` (H-DCLGAWRKCIPDNDKCCRPNLVCSRTHKWCKYVF-NH2; disulfide 2-17, 9-23, 16-30), the values for the concentration for half-maximal inhibition (IC50) in test [1] and in test [2] were > 10 µM and 0.059 µM, respectively.
The corresponding values for `CC[C@H](C)[C@@H]1NC(=O)[C@@H]2CSSC[C@@H]3NC(=O)[C@H](C(C)C)NC(=O)[C@H](CC(C)C)NC(=O)[C@H](CC(N)=O)NC(=O)[C@@H]4CCCN4C(=O)[C@H](CCCNC(=N)N)NC(=O)[C@H](CSSC[C@H](NC(=O)[C@@H](N)CC(=O)O)C(=O)N[C@@H](CC(C)C)C(=O)NCC(=O)N[C@@H](Cc4ccccc4)C(=O)N[C@@H](C)C(=O)N[C@@H](CCCNC(=N)N)C(=O)N[C@@H](CCCCN)C(=O)N2)NC(=O)[C@H](CSSC[C@@H](C(=O)N[C@@H](CCCCN)C(=O)N[C@@H](Cc2ccc(O)cc2)C(=O)N[C@H](C(=O)N[C@@H](Cc2ccccc2)C(N)=O)C(C)C)NC(=O)[C@H](Cc2c[nH]c4ccccc24)NC(=O)[C@H](CCCCN)NC(=O)[C@H](Cc2cnc[nH]2)NC(=O)[C@H]([C@@H](C)O)NC(=O)[C@H](CCCNC(=N)N)NC(=O)[C@H](CO)NC3=O)NC(=O)[C@H](CCCCN)NC(=O)[C@H](CC(=O)O)NC(=O)[C@H](CC(N)=O)NC(=O)[C@H](CC(=O)O)NC(=O)[C@@H]2CCCN2C1=O` (H-DCLGFARKCIPDNDKCCRPNLVCSRTHKWCKYVF-NH2; disulfide 2-17, 9-23, 16-30) are > 5 µM and 0.43 µM.
In the case of `CC[C@H](C)[C@@H]1NC(=O)[C@@H]2CSSC[C@@H]3NC(=O)[C@H](C(C)C)NC(=O)[C@H](CC(C)C)NC(=O)[C@H](CC(N)=O)NC(=O)[C@@H]4CCCN4C(=O)[C@H](CCCNC(=N)N)NC(=O)[C@H](CSSC[C@H](NC(=O)[C@@H](N)CC(=O)O)C(=O)N[C@@H](CC(C)C)C(=O)NCC(=O)N[C@@H](Cc4ccccc4)C(=O)N[C@@H](Cc4ccccc4)C(=O)N[C@@H](CCCNC(=N)N)C(=O)N[C@@H](CCCCN)C(=O)N2)NC(=O)[C@H](CSSC[C@@H](C(=O)N[C@@H](CCCCN)C(=O)N[C@@H](Cc2ccc(O)cc2)C(=O)N[C@H](C(=O)N[C@@H](Cc2ccccc2)C(N)=O)C(C)C)NC(=O)[C@H](Cc2c[nH]c4ccccc24)NC(=O)[C@H](CCCCN)NC(=O)[C@H](Cc2cnc[nH]2)NC(=O)[C@H]([C@@H](C)O)NC(=O)[C@H](CCCNC(=N)N)NC(=O)[C@H](CO)NC3=O)NC(=O)[C@H](CCCCN)NC(=O)[C@H](CC(=O)O)NC(=O)[C@H](CC(N)=O)NC(=O)[C@H](CC(=O)O)NC(=O)[C@@H]2CCCN2C1=O` (H-DCLGFFRKCIPDNDKCCRPNLVCSRTHKWCKYVF-NH2; disulfide 2-17, 9-23, 16-30), the half-maximal inhibitory concentration (IC50) in test [1] turned out to be 3 µM; in test [2] it was 0.019 µM.
For `CC[C@H](C)[C@@H]1NC(=O)[C@@H]2CSSC[C@@H]3NC(=O)[C@H](C(C)C)NC(=O)[C@H](CC(C)C)NC(=O)[C@H](CC(N)=O)NC(=O)[C@@H]4CCCN4C(=O)[C@H](CCCNC(=N)N)NC(=O)[C@H](CSSC[C@H](NC(=O)[C@@H](N)CC(=O)O)C(=O)N[C@@H](CC(C)C)C(=O)NCC(=O)N[C@@H](Cc4ccccc4)C(=O)N[C@@H](CC(C)C)C(=O)N[C@@H](CCCNC(=N)N)C(=O)N[C@@H](CCCCN)C(=O)N2)NC(=O)[C@H](CSSC[C@@H](C(=O)N[C@@H](CCCCN)C(=O)N[C@@H](Cc2ccc(O)cc2)C(=O)N[C@H](C(=O)N[C@@H](Cc2ccccc2)C(N)=O)C(C)C)NC(=O)[C@H](Cc2c[nH]c4ccccc24)NC(=O)[C@H](CCCCN)NC(=O)[C@H](Cc2cnc[nH]2)NC(=O)[C@H]([C@@H](C)O)NC(=O)[C@H](CCCNC(=N)N)NC(=O)[C@H](CO)NC3=O)NC(=O)[C@H](CCCCN)NC(=O)[C@H](CC(=O)O)NC(=O)[C@H](CC(N)=O)NC(=O)[C@H](CC(=O)O)NC(=O)[C@@H]2CCCN2C1=O` (H-DCLGFLRKCIPDNDKCCRPNLVCSRTHKWCKYVF-NH2; disulfide 2-17, 9-23, 16-30) the same measures were > 10 µM and 0.024 µM.
Take `CC[C@H](C)[C@@H]1NC(=O)[C@@H]2CSSC[C@@H]3NC(=O)[C@H](C(C)C)NC(=O)[C@H](CC(C)C)NC(=O)[C@H](CC(N)=O)NC(=O)[C@@H]4CCCN4C(=O)[C@H](CCCNC(=N)N)NC(=O)[C@H](CSSC[C@H](NC(=O)[C@@H](N)CC(=O)O)C(=O)N[C@@H](CC(C)C)C(=O)NCC(=O)N[C@@H](Cc4ccccc4)C(=O)N[C@@H](CCSC)C(=O)N[C@@H](CCCNC(=N)N)C(=O)N[C@@H](C)C(=O)N2)NC(=O)[C@H](CSSC[C@@H](C(=O)N[C@@H](CCCCN)C(=O)N[C@@H](Cc2ccc(O)cc2)C(=O)N[C@H](C(=O)N[C@@H](Cc2ccccc2)C(N)=O)C(C)C)NC(=O)[C@H](Cc2c[nH]c4ccccc24)NC(=O)[C@H](CCCCN)NC(=O)[C@H](Cc2cnc[nH]2)NC(=O)[C@H]([C@@H](C)O)NC(=O)[C@H](CCCNC(=N)N)NC(=O)[C@H](CO)NC3=O)NC(=O)[C@H](CCCCN)NC(=O)[C@H](CC(=O)O)NC(=O)[C@H](CC(N)=O)NC(=O)[C@H](CC(=O)O)NC(=O)[C@@H]2CCCN2C1=O` (H-DCLGFMRACIPDNDKCCRPNLVCSRTHKWCKYVF-NH2; disulfide 2-17, 9-23, 16-30): the IC50 in test [1] is > 5 µM; in test [2] it was 0.5 µM.
For `CC[C@H](C)[C@@H]1NC(=O)[C@@H]2CSSC[C@@H]3NC(=O)[C@H](C(C)C)NC(=O)[C@H](CC(C)C)NC(=O)[C@H](CC(N)=O)NC(=O)[C@@H]4CCCN4C(=O)[C@H](CCCNC(=N)N)NC(=O)[C@H](CSSC[C@H](NC(=O)[C@@H](N)CC(=O)O)C(=O)N[C@@H](CC(C)C)C(=O)NCC(=O)N[C@@H](Cc4ccccc4)C(=O)N[C@@H](CCSC)C(=O)N[C@@H](CCCNC(=N)N)C(=O)N[C@@H](CCCCN)C(=O)N2)NC(=O)[C@H](CSSC[C@@H](C(=O)N[C@@H](CCCCN)C(=O)N[C@@H](Cc2ccc(O)cc2)C(=O)N[C@H](C(=O)N[C@@H](Cc2ccccc2)C(N)=O)C(C)C)NC(=O)[C@H](Cc2c[nH]c4ccccc24)NC(=O)[C@H](CCCCN)NC(=O)[C@H](Cc2cnc[nH]2)NC(=O)[C@H]([C@@H](C)O)NC(=O)[C@H](CCCNC(=N)N)NC(=O)[C@H](CO)NC3=O)NC(=O)[C@H](CCCCN)NC(=O)[C@H](CC(=O)O)NC(=O)[C@H](CC(N)=O)NC(=O)[C@H](CC(=O)O)NC(=O)[C@H](C)NC1=O` (H-DCLGFMRKCIADNDKCCRPNLVCSRTHKWCKYVF-NH2; disulfide 2-17, 9-23, 16-30) the same measures were > 5 µM and 0.17 µM.
For `CC[C@H](C)[C@@H]1NC(=O)[C@@H]2CSSC[C@@H]3NC(=O)[C@H](C(C)C)NC(=O)[C@H](CC(C)C)NC(=O)[C@H](CC(N)=O)NC(=O)[C@@H]4CCCN4C(=O)[C@H](CCCNC(=N)N)NC(=O)[C@H](CSSC[C@H](NC(=O)[C@@H](N)CC(=O)O)C(=O)N[C@@H](CC(C)C)C(=O)NCC(=O)N[C@@H](Cc4ccccc4)C(=O)N[C@@H](CCSC)C(=O)N[C@@H](CCCNC(=N)N)C(=O)N[C@@H](CCCCN)C(=O)N2)NC(=O)[C@H](CSSC[C@@H](C(=O)N[C@@H](CCCCN)C(=O)N[C@@H](Cc2ccc(O)cc2)C(=O)N[C@H](C(=O)N[C@@H](Cc2ccccc2)C(N)=O)C(C)C)NC(=O)[C@H](Cc2c[nH]c4ccccc24)NC(=O)[C@H](CCCCN)NC(=O)[C@H](Cc2cnc[nH]2)NC(=O)[C@H]([C@@H](C)O)NC(=O)[C@H](CCCNC(=N)N)NC(=O)[C@H](CO)NC3=O)NC(=O)[C@H](CCCCN)NC(=O)[C@H](CC(=O)O)NC(=O)[C@H](C)NC(=O)[C@H](CC(=O)O)NC(=O)[C@@H]2CCCN2C1=O` (H-DCLGFMRKCIPDADKCCRPNLVCSRTHKWCKYVF-NH2; disulfide 2-17, 9-23, 16-30) the same measures were > 5 µM and 0.19 µM.
For `CC[C@H](C)[C@@H]1NC(=O)[C@@H]2CSSC[C@@H]3NC(=O)[C@H](C(C)C)NC(=O)[C@H](CC(C)C)NC(=O)[C@H](CC(N)=O)NC(=O)[C@@H]4CCCN4C(=O)[C@H](CCCNC(=N)N)NC(=O)[C@H](CSSC[C@H](NC(=O)[C@@H](N)CC(=O)O)C(=O)N[C@@H](CC(C)C)C(=O)NCC(=O)N[C@@H](Cc4ccccc4)C(=O)N[C@@H](CCSC)C(=O)N[C@@H](CCCNC(=N)N)C(=O)N[C@@H](CCCCN)C(=O)N2)NC(=O)[C@H](CSSC[C@@H](C(=O)N[C@@H](CCCCN)C(=O)N[C@@H](Cc2ccc(O)cc2)C(=O)N[C@H](C(=O)N[C@@H](Cc2ccccc2)C(N)=O)C(C)C)NC(=O)[C@H](Cc2c[nH]c4ccccc24)NC(=O)[C@H](CCCCN)NC(=O)[C@H](Cc2cnc[nH]2)NC(=O)[C@H]([C@@H](C)O)NC(=O)[C@H](CCCNC(=N)N)NC(=O)[C@H](CO)NC3=O)NC(=O)[C@H](C)NC(=O)[C@H](CC(=O)O)NC(=O)[C@H](CC(N)=O)NC(=O)[C@H](CC(=O)O)NC(=O)[C@@H]2CCCN2C1=O` (H-DCLGFMRKCIPDNDACCRPNLVCSRTHKWCKYVF-NH2; disulfide 2-17, 9-23, 16-30) the same measures were > 5 µM and 0.23 µM.
